Measured values: patent US20090186907A1, “Pyrazinones As Cellular Proliferation Inhibitors” (E.I. DuPont De Nemours and Company, priority 2006, published 2009)

Tests used:
[1] = test system: neuroblastoma (N1E115) cells; assay: Assay for inhibition of cell proliferation (MTT), neuroblastoma cells; format: cell-based, mouse; conditions: for IC50: neuroblastoma (N1E115) cells, MTT; for N1E115 Ratio (paclitaxel/compound): ratio of paclitaxel IC50 to compound IC50, N1E115 cells
Method: (§1) Human rabdomyosarcoma (RD) and mouse neuroblastoma (N1E115) cell lines were obtained from the American Type Culture Collection (ATCC, Rockville, Md.). The RD cells were grown in Dulbecco's modified eagle medium (DMEM) supplemented with 4 mM glutamine, containing 10% fetal bovine serum (ATCC #30-2020) and supplemented with 1% penicillin and 1% streptomycin. When confluent, the cells were maintained by passage (about once per week) until needed. The N1E115 line was also cultured in DMEM with 4 mM glutamine containing 10% newborn calf serum (Gibco, Grand Island, N.Y.) and likewise maintained.
(§2) The proliferation of rhabdomyosarcoma cells was determined using a cell proliferation assay kit based on the formation of insoluble formazan crystals from 3-(4,5-dimethylthiazol-2-yl)-2,5-diphenyltetrazolium bromide (MTT). The rhabdomyosarcoma cells were cultured to a density of 10^5 cells per mL. The cell culture (100 μL) was dispensed into wells of a 96-well plate to 10^4 cells per well. The plate was incubated at 37° C. for 3 h until the cells firmly attached to the well surfaces.
(§3) A second 96-well round bottom plate was made up containing the test compounds, serially diluted to cover the concentration range of interest using the DMEM medium plus antibiotics. The final concentration of DMSO in which the compounds were initially dissolved was maintained at a constant 0.5% in each well and the volume of the compounds in the plate was 220 μL. Following the 3 h incubation the medium was removed from the plate containing the cells and replaced with 200 μL of the solutions containing the compounds. The cells were incubated for a further 96 h before the assessment of growth inhibition using MTT.
(§4) The cells were left bathing in 100 μL of the saline solution to which was added 100 μL of MTT in saline (12 mM). Incubation was continued for 4 h at 37° C. to produce the blue formazan color which was quantified by optical density measurements at 570 nm. Background correction of all test wells was performed by subtraction of the yellow MTT solution color measured at 570 nm in cell-free wells. The data were normalized to solvent only control wells.

[2] = test system: rhabdomyosarcoma (RD) cells; assay: Assay for inhibition of cell proliferation (MTT), rhabdomyosarcoma cells; format: cell-based, human; conditions: for IC50: rhabdomyosarcoma (RD) cells, MTT, 96 h incubation; for RD Ratio (paclitaxel/compound): ratio of paclitaxel IC50 to compound IC50, RD cells
Method: as §1, §2, §3, §4

CC(C)Cn1c(-c2c(F)cccc2F)c(Cl)nc(C#N)c1=O [Compound 5, 6-Chloro-5-(2,6-difluorophenyl)-3,4-dihydro-4-(2-methylpropyl)-3-oxopyrazinecarbonitrile]
melting point: 100 to 102 °C

CC(C)Cn1c(-c2ccc(F)cc2Cl)c(Cl)nc(-n2cccn2)c1=O [Compound 53, 5-Chloro-6-(2-chloro-4-fluorophenyl)-1-(2-methylpropyl)-3-(1H-pyrazol-1-yl)-2(1H)-pyrazinone]
melting point: 137 to 139 °C | IC50 ([1]; Mus musculus, N1E-115): 700 nM | N1E115 Ratio (paclitaxel/compound) [1]: 0.13 | IC50 ([2]; Homo sapiens): 230 nM | RD Ratio (paclitaxel/compound) [2]: 0.07

CC(C)Cn1c(-c2c(F)cccc2F)c(Cl)nc(-c2cn(C)cn2)c1=O [Compound 85, 5-Chloro-6-(2,6-difluorophenyl)-1-(2-methylpropyl)-3-(1-methyl-1H-imidazol-4-yl)-2(1H)-pyrazinone]
melting point: 191 to 193 °C

Cc1nc(-n2cccn2)c(=O)n(CC(C)C)c1-c1c(F)cccc1F [Compound 149, 5-Methyl-6-(2,6-difluorophenyl)-1-(2-methylpropyl)-3-(1H-pyrazol-1-yl)-2(1H)-pyrazinone]
melting point: 105 to 106 °C

CC[C@H](C)Cn1c(-c2c(F)cc(F)cc2F)c(Cl)nc(-n2cccn2)c1=O [Compound 155, 5-Chloro-1-[(2S)-2-methylbutyl)-3-(1H-pyrazol-1-yl)-6-(2,4,6-trifluorophenyl)-2(1H)-pyrazinone]
melting point: 112 to 113 °C | IC50 ([1]; Mus musculus, N1E-115): 75 nM | N1E115 Ratio (paclitaxel/compound) [1]: 1.17 | IC50 ([2]; Homo sapiens): 20 nM | RD Ratio (paclitaxel/compound) [2]: 0.85

COc1ccc(Cn2c(-c3c(F)cccc3F)c(Cl)nc(-n3cccn3)c2=O)cc1 [Compound 271, 5-Chloro-6-(2,6-difluorophenyl)-1-[(4-methoxyphenyl)methyl]-3-(1H-pyrazol-1-yl)-2(1H)-pyrazinone]
melting point: 235 to 236 °C

CC(C)Cn1c(-c2c(F)cccc2F)cnc(-n2cccn2)c1=O [Compound 342, 6-(2,6-Difluorophenyl)-1-(2-methylpropyl)-3-(1H-pyrazol-1-yl)-2(1H)-pyrazinone]
melting point: 91 to 92 °C

O=c1c(-n2cccn2)nc(Cl)c(-c2c(F)cc(F)cc2F)n1CC(F)(F)C(F)(F)F [Compound 468, 5-Chloro-1-(2,2,3,3,3-pentafluoropropyl)-3-(1H-pyrazol-1-yl)-6-(2,4,6-trifluorophenyl)-2(1H)-pyrazinone]
melting point: 147 to 149 °C

CCC(C)Cn1c(-c2ccc(F)cc2F)c(C)nc(C#N)c1=N (centres unmarked) [Compound 471, 5-(2,4-Difluorophenyl)-3,4-dihydro-3-imino-6-methyl-4-(2-methylbutyl)pyrazinecarbonitrile]
melting point: 73 to 77 °C

CC[C@H](C)Cn1c(-c2c(F)cc(OC)cc2F)c(Cl)nc(-n2ccc(C)n2)c1=O [Compound 504]
IC50 [1]: 102 nM | N1E115 Ratio (paclitaxel/compound) [1]: 0.86 | RD Ratio (paclitaxel/compound) [2]: 1.04 | IC50 [2]: 16.3 nM

CC(=O)O[C@H]1C(=O)[C@@]2(C)[C@H]([C@H](OC(=O)c3ccccc3)[C@]3(O)C[C@H](OC(=O)[C@H](O)[C@@H](NC(=O)c4ccccc4)c4ccccc4)C(C)=C1C3(C)C)[C@]1(OC(C)=O)CO[C@@H]1C[C@@H]2O [paclitaxel, reference compound]
IC50 ([1]; Mus musculus, N1E-115): 88 nM | IC50 ([2]; Homo sapiens): 17 nM
